{
  "source": "patent US8247211B2",
  "about": "“Glycopeptide antibiotics” (American Cyanamid Company, priority 2001, dated 2012)",
  "experiment_in_all_cases": "In vitro antibacterial evaluation: minimum inhibitory concentration (MIC), broth dilution method",
  "format_in_all_cases": "cell-based",
  "conditions_in_all_cases": "18 hours at 35° C.",
  "key": {"Enterococcus sp.": {"test_system": "Enterococcus sp.", "summary_of_the_method": "(§1)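 Susceptibility determined by NCCLS-recommended broth dilution (M7-A2), Muller-Hinton II […]. Concentration span 64-0.06 μg/mL, inoculum 5×10^5 CFU/mL. Isolates include strains resistant to methicillin, penicillin and/or vancomycin.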"}, "Escherichia coli": {"test_system": "Escherichia coli", "summary_of_the_method": "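NCCLS M7-A2 broth dilution with Mueller-Hinton II, testing 64-0.06 μg/mL antibiotic against 5×10^5 CFU/mL inocula. Test strains include recent methicillin-, penicillin- or vancomycin-resistant clinical isolates. MIC is the lowest concentration preventing growth.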"}, "Staphylococcus sp.": {"test_system": "Staphylococcus sp.", "summary_of_the_method": "as §1"}, "Streptococcus sp.": {"test_system": "Streptococcus sp.", "summary_of_the_method": "as §1"}, "[1]": {"conditions": "broth dilution, inoculum 5×10^5 CFU/mL"}},
  "data": [
    {"compound": "CCOc1cc(COCC2OC(OC3C(CO)OC(Oc4ccc(CC5NC(=O)C(C(C)c6ccccc6)NC(=O)CNC(=O)C(CO)NC(=O)C(C(O)C6CNC(=N)N6C6OC(CO)C(O)C(O)C6O)NC(=O)C(C(O)C6CNC(=N)N6)NC5=O)cc4)C(O)C3O)C(O)C(O)C2O)ccc1OC", "note": "(stereo not shown) [Example 238]", "values": [
      {"measurement": "MIC Enterococcus avium (GC 4558)", "setting": "Enterococcus sp.; Enterococcus avium (GC 4558)", "result": 16, "unit": "µg/mL"},
      {"measurement": "MIC Enterococcus faecalis (ATCC 29212)", "setting": "Enterococcus sp.; Enterococcus faecalis (ATCC 29212)", "result": 16, "unit": "µg/mL"},
      {"measurement": "MIC Enterococcus faecalis (GC 2242)", "setting": "Enterococcus sp.; Enterococcus faecalis (GC 2242)", "result": 16, "unit": "µg/mL"},
      {"measurement": "MIC Enterococcus faecalis (GC 2691)", "setting": "Enterococcus sp.; Enterococcus faecalis (GC 2691)", "result": 16, "unit": "µg/mL"},
      {"measurement": "MIC Enterococcus faecalis (GC 3059)", "setting": "Enterococcus sp.; Enterococcus faecalis (GC 3059)", "result": 32, "unit": "µg/mL"},
      {"measurement": "MIC Enterococcus faecalis (GC 4552)", "setting": "Enterococcus sp.; Enterococcus faecalis (GC 4552)", "result": 32, "unit": "µg/mL"},
      {"measurement": "MIC Enterococcus faecalis (GC 4553)", "setting": "Enterococcus sp.; Enterococcus faecalis (GC 4553)", "result": 32, "unit": "µg/mL"},
      {"measurement": "MIC Enterococcus faecalis (GC 4554)", "setting": "Enterococcus sp.; Enterococcus faecalis (GC 4554)", "result": 32, "unit": "µg/mL"},
      {"measurement": "MIC Enterococcus faecalis (GC 6189)", "setting": "Enterococcus sp.; Enterococcus faecalis (GC 6189)", "result": 16, "unit": "µg/mL"},
      {"measurement": "MIC Enterococcus faecium (GC 2243)", "setting": "Enterococcus sp.; Enterococcus faecium (GC 2243)", "result": 16, "unit": "µg/mL"},
      {"measurement": "MIC Enterococcus faecium (GC 4556)", "setting": "Enterococcus sp.; Enterococcus faecium (GC 4556)", "result": 32, "unit": "µg/mL"},
      {"measurement": "MIC Enterococcus faecium (GC 4557)", "setting": "Enterococcus sp.; Enterococcus faecium (GC 4557)", "result": 4, "unit": "µg/mL"},
      {"measurement": "MIC Enterococcus faecalis (GC 2242)", "setting": "Enterococcus sp.; [1]", "result": 16, "unit": "µg/mL"},
      {"measurement": "MIC Enterococcus faecalis (GC 2691)", "setting": "Enterococcus sp.; [1]", "result": 16, "unit": "µg/mL"},
      {"measurement": "MIC Enterococcus faecalis (GC 3059)", "setting": "Enterococcus sp.; [1]", "result": 32, "unit": "µg/mL"},
      {"measurement": "MIC Escherichia coli (ATCC 25922)", "setting": "Escherichia coli; Escherichia coli (ATCC 25922)", "result": ">64", "unit": "µg/mL"},
      {"measurement": "MIC Escherichia coli (GC 4559)", "setting": "Escherichia coli; Escherichia coli (GC 4559)", "result": ">64", "unit": "µg/mL"},
      {"measurement": "MIC Escherichia coli (GC 4560)", "setting": "Escherichia coli; Escherichia coli (GC 4560)", "result": 2, "unit": "µg/mL"},
      {"measurement": "MIC Coagulase Negative Staphylococcus (GC 4547)", "setting": "Staphylococcus sp.; Coagulase Negative Staphylococcus (GC 4547)", "result": 2, "unit": "µg/mL"},
      {"measurement": "MIC Coagulase Negative Staphylococcus (GC 4548)", "setting": "Staphylococcus sp.; Coagulase Negative Staphylococcus (GC 4548)", "result": 2, "unit": "µg/mL"},
      {"measurement": "MIC Coagulase Negative Staphylococcus (GC 4549)", "setting": "Staphylococcus sp.; Coagulase Negative Staphylococcus (GC 4549)", "result": 2, "unit": "µg/mL"},
      {"measurement": "MIC Coagulase Negative Staphylococcus (GC 4551)", "setting": "Staphylococcus sp.; Coagulase Negative Staphylococcus (GC 4551)", "result": 4, "unit": "µg/mL"},
      {"measurement": "MIC Coagulase Negative Staphylococcus (GC 6257)", "setting": "Staphylococcus sp.; Coagulase Negative Staphylococcus (GC 6257)", "result": 1, "unit": "µg/mL"},
      {"measurement": "MIC Staphylococcus aureus (ATCC 29213)", "setting": "Staphylococcus sp.; Staphylococcus aureus (ATCC 29213)", "result": 4, "unit": "µg/mL"},
      {"measurement": "MIC Staphylococcus aureus (GC 1131)", "setting": "Staphylococcus sp.; Staphylococcus aureus (GC 1131)", "result": 4, "unit": "µg/mL"},
      {"measurement": "MIC Staphylococcus aureus (GC 3051)", "setting": "Staphylococcus sp.; Staphylococcus aureus (GC 3051)", "result": 4, "unit": "µg/mL"},
      {"measurement": "MIC Staphylococcus aureus (GC 3053)", "setting": "Staphylococcus sp.; Staphylococcus aureus (GC 3053)", "result": 8, "unit": "µg/mL"},
      {"measurement": "MIC Staphylococcus aureus (GC 4541)", "setting": "Staphylococcus sp.; Staphylococcus aureus (GC 4541)", "result": 4, "unit": "µg/mL"},
      {"measurement": "MIC Staphylococcus aureus (GC 4542)", "setting": "Staphylococcus sp.; Staphylococcus aureus (GC 4542)", "result": 4, "unit": "µg/mL"},
      {"measurement": "MIC Staphylococcus aureus (GC 4544)", "setting": "Staphylococcus sp.; Staphylococcus aureus (GC 4544)", "result": 8, "unit": "µg/mL"},
      {"measurement": "MIC Staphylococcus aureus (GC 4545)", "setting": "Staphylococcus sp.; Staphylococcus aureus (GC 4545)", "result": 2, "unit": "µg/mL"},
      {"measurement": "MIC Staphylococcus aureus-SMITH (GC 4543)", "setting": "Staphylococcus sp.; Staphylococcus aureus-SMITH (GC 4543)", "result": 4, "unit": "µg/mL"},
      {"measurement": "MIC Staphylococcus haemolyticus (GC 4546)", "setting": "Staphylococcus sp.; Staphylococcus haemolyticus (GC 4546)", "result": 2, "unit": "µg/mL"},
      {"measurement": "MIC Streptococcus agalactiae (GC 4564)", "setting": "Streptococcus sp.; Streptococcus agalactiae (GC 4564)", "result": 2, "unit": "µg/mL"},
      {"measurement": "MIC Streptococcus pneumoniae (ATCC 6301)", "setting": "Streptococcus sp.; Streptococcus pneumoniae (ATCC 6301)", "result": 1, "unit": "µg/mL"},
      {"measurement": "MIC Streptococcus pneumoniae (GC 1894)", "setting": "Streptococcus sp.; Streptococcus pneumoniae (GC 1894)", "result": 0.5, "unit": "µg/mL"},
      {"measurement": "MIC Streptococcus pneumoniae (GC 4565)", "setting": "Streptococcus sp.; Streptococcus pneumoniae (GC 4565)", "result": 1, "unit": "µg/mL"},
      {"measurement": "MIC Streptococcus pyogenes (GC 4563)", "setting": "Streptococcus sp.; Streptococcus pyogenes (GC 4563)", "result": 1, "unit": "µg/mL"},
      {"measurement": "MIC Streptococcus agalactiae (GC 4564)", "setting": "Streptococcus sp.; [1]", "result": 2, "unit": "µg/mL"},
      {"measurement": "MIC Streptococcus pneumoniae (ATCC 6301)", "setting": "Streptococcus sp.; [1]", "result": 1, "unit": "µg/mL"},
      {"measurement": "MIC Streptococcus pneumoniae (GC 1894)", "setting": "Streptococcus sp.; [1]", "result": 0.5, "unit": "µg/mL"},
      {"measurement": "MIC Streptococcus pneumoniae (GC 4565)", "setting": "Streptococcus sp.; [1]", "result": 1, "unit": "µg/mL"},
      {"measurement": "MIC Streptococcus pyogenes (GC 4563)", "setting": "Streptococcus sp.; [1]", "result": 1, "unit": "µg/mL"}
    ]}
  ]
}
